According to ChEMBL document CHEMBL1201862, “PubChem BioAssay data set” (2004):
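All cell lines were grown in 96-well plates and treated with compound for 48 hours. Here, GI50 denotes the concentration required for 50% inhibition of growth.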 Calls of active or inactive are those of the source. Cut-off read from the data, not from the text of the source: active = GI50 up to about 1.1 µM and inactive = higher.

Assays:
Test in all cases: DTP human tumour cell line panel, 48 h
SNB-19 = tested on: SNB-19
HT-29 = tested on: HT-29
SF-539 = tested on: SF-539
SF-268 = tested on: SF-268
UACC-257 = tested on: UACC-257
HL-60 = tested on: HL-60
CAKI-1 = tested on: CAKI-1
M14 = tested on: M14
KM12 = tested on: KM12
U-251 = tested on: U-251
OVCAR-4 = tested on: OVCAR-4
IGROV-1 = tested on: IGROV-1
SNB-75 = tested on: SNB-75
EKVX = tested on: EKVX
UACC-62 = tested on: UACC-62
A549 = tested on: A549
LXFL 529 = tested on: LXFL 529
SK-MEL-28 = tested on: SK-MEL-28
SW-620 = tested on: SW-620
MDA-MB-231 = tested on: MDA-MB-231

Row | SMILES | GI50 (SNB-19) | GI50 (HT-29) | GI50 (SF-539) | GI50 (SF-268) | GI50 (UACC-257) | GI50 (HL-60) | GI50 (CAKI-1) | GI50 (M14) | GI50 (KM12) | GI50 (U-251) | GI50 (OVCAR-4) | GI50 (IGROV-1) | GI50 (SNB-75) | GI50 (EKVX) | GI50 (UACC-62) | GI50 (A549) | GI50 (LXFL 529) | GI50 (SK-MEL-28) | GI50 (SW-620) | GI50 (MDA-MB-231)
1 | CC(=O)COC(=O)CC(C)=O | > 100 µM (inactive) | > 100 µM (inactive) | > 100 µM (inactive) | > 100 µM (inactive) | > 100 µM (inactive) | > 100 µM (inactive) | > 100 µM (inactive) | > 100 µM (inactive) | > 100 µM (inactive) | > 100 µM (inactive) | > 100 µM (inactive) | > 100 µM (inactive) | > 100 µM (inactive) | > 100 µM (inactive) | > 100 µM (inactive) | > 100 µM (inactive) | > 100 µM (inactive) | > 100 µM (inactive) | > 100 µM (inactive) | 
2 | NS(=O)(=O)c1ccc(Nc2c3ccccc3nc3c(C(=O)N4CCN(CCO)CC4)cccc23)cc1 | > 100 µM (inactive) | 71.8 µM (inactive) | > 100 µM (inactive) | > 100 µM (inactive) | > 100 µM (inactive) | 29.2 µM (inactive) | > 100 µM (inactive) | > 100 µM (inactive) | 93.5 µM (inactive) | > 100 µM (inactive) | > 100 µM (inactive) | > 100 µM (inactive) | 52.7 µM (inactive) | > 100 µM (inactive) | > 100 µM (inactive) | > 100 µM (inactive) | 60.3 µM (inactive) | > 100 µM (inactive) | > 100 µM (inactive) | 
3 | C=C1C(=O)OC2/C=C(\C)C3OC3/C=C(/C(=O)OC)C(OC(C)=O)C(OC(=O)C(C)(O)C(C)OC(C)=O)C12 (stereo unspecified) | 14.5 µM (inactive) | 1.29 µM (inactive) | 2.11 µM (inactive) | 5.55 µM (inactive) | 0.679 µM (active) | 0.308 µM (active) | 4.36 µM (inactive) | 2.39 µM (inactive) | 2.49 µM (inactive) | 3.03 µM (inactive) | 3.5 µM (inactive) | 1.98 µM (inactive) | 2.81 µM (inactive) | 10.5 µM (inactive) | 1.7 µM (inactive) | 14.6 µM (inactive) | 1.1 µM (active) | 2.23 µM (inactive) | 0.796 µM (active) | 8.93 µM (inactive)
4 | CN(CCc1ccccn1)/[N+]([O-])=N/O.CNCCc1ccccn1 | > 100 µM (inactive) | > 100 µM (inactive) | > 100 µM (inactive) | > 100 µM (inactive) | > 100 µM (inactive) | > 100 µM (inactive) | > 100 µM (inactive) | > 100 µM (inactive) | > 100 µM (inactive) |  | > 100 µM (inactive) | > 100 µM (inactive) | > 100 µM (inactive) | > 100 µM (inactive) | > 100 µM (inactive) | > 100 µM (inactive) | > 100 µM (inactive) | > 100 µM (inactive) | > 100 µM (inactive) | 
